Reference: patent US20200189989A1, “APPLICATION OF SYRINGIC ACID IN PROMOTING NITRIFICATION INHIBITION ACTIVITY OF DECANEDIOL” (Institute of Soil Science, Chinese Academy of Sciences, priority 2018, published 2020)

Experiments:
Assay type in all cases: cell-based
[1] = test system: Nitrosomonas europaea (NBRC 14298); test: Nitrification activity inhibition experiment, Nitrosomonas europaea (NO2- production, improved Griess method); details: 2 hours, 25° C., dark
Procedure: Standard: a syringic acid standard was purchased from Sigma-Aldrich (St. Louis, Mo., USA), and the solid powder thereof was weighed and dissolved in DMSO. A 1,9-decanediol standard was purchased from WuXi AppTec, and the solid powder thereof was dissolved in DMSO while frozen over the dry ice (the 1,9-decanediol standard was a viscous liquid substance under normal temperature). Microbial strains: Nitrosomonas europaea (NBRC 14298) was purchased from Biological Resource Center, NITE, Japan. Microbial culture medium: a HEPES medium, which contained 2.5 g of (NH4)2SO4, 0.5 g of KH2PO4, 11.92 g of HEPES, 0.5 g of NaHCO3, 100 mg of MgSO4.7H2O, 5 mg of CaCl2.2H2O, and 75 mg of Fe-EDTA per 1 L liquid medium, at pH 7.8-8.0. Culture of microorganisms: Nitrosomonas europaea was inoculated in the HEPES medium and cultured at 30° C. and 200 rpm under a dark condition (aerobic), and the Nitrosomonas europaea enters a stable period 7-9 days after transfer each time. Nitrification activity inhibition experiment: The bacterial solution cultured for 7 days was collected, centrifuged at 5000 g for 20 min, and resuspended in a fresh and sterile HEPES medium until the OD600 reached about 1.0, with a concentration multiple of 40-50 times. Taken was a 1.5 mL sterile centrifuge tube, and it was sequentially added with 195 μL of sterile water, 5 μL of different concentrations of solutions of syringic acid and 1,9-decanediol in DMSO, 100 μL of the fresh and sterile HEPES medium, and 200 μL of a resuspended bacterial solution, and then cultured in a water bath at 25° C. under a dark condition for 2 hours. Then the mixed system was added with 20 μL of 0.1M Allylthiourea to terminate the nitrosification. […] of the reacted mixture was added into a 10 mL colorimetric tube, diluted to about 5 mL with deionized water, added with 1 mL of a sulfanilic acid solution, shaken well and then subjected to standing for 2-8 min, then added with 1 mL of a hydrochloric acid N-(1-naphthyl)-ethylenediamine solution, shaken well, diluted to 10 mL with water to obtain a constant volume. Deionized water was used as a reference, and the absorbances were determined at a wavelength of 540 nm. The reticle of NO2^− was made in the same manner to quantify the NO2^− generated in the sample system, and the sample inhibition rate was calculated by the following formula. This determination method was an improved Griess method, which could be referred to the national standard “determination of nitrite in the wet precipitation -N-(1-naphthyl)-1,2-diaminoethane spectrophotometry”. Nitrosification inhibition rate (%)=(1-the produced amount of NO2^− of the sample/the produced amount of NO2^− of a blank)×100%

[2] = test system: Nitrosomonas stercoris (NBRC 110753); test: Nitrification activity inhibition experiment, Nitrosomonas stercoris (NO2- production, improved Griess method); details: 2 hours, 25° C., dark
Procedure: Nitrification activity inhibition experiment: The bacterial solution cultured for 7 days was collected, centrifuged at 5000 g for 20 min, and resuspended in a fresh and sterile HEPES medium until the OD600 reached about 1.0, with a concentration multiple of 40-50 times. Taken was a 1.5 mL sterile centrifuge tube, and it was sequentially added with 195 μL of sterile water, 5 μL of different concentrations of solutions of syringic acid and 1,9-decanediol in DMSO, 100 μL of the fresh and sterile HEPES medium, and 200 μL of a resuspended bacterial solution, and then cultured in a water bath at 25° C. under a dark condition for 2 hours. Then the mixed system was added with 20 μL of 0.1M Allylthiourea to terminate the nitrosification. […] of the reacted mixture was added into a 10 mL colorimetric tube, diluted to about 5 mL with deionized water, added with 1 mL of a sulfanilic acid solution, shaken well and then subjected to standing for 2-8 min, then added with 1 mL of a hydrochloric acid N-(1-naphthyl)-ethylenediamine solution, shaken well, diluted to 10 mL with water to obtain a constant volume. Deionized water was used as a reference, and the absorbances were determined at a wavelength of 540 nm. The reticle of NO2^− was made in the same manner to quantify the NO2^− generated in the sample system, and the sample inhibition rate was calculated by the following formula. This determination method was an improved Griess method, which could be referred to the national standard “determination of nitrite in the wet precipitation -N-(1-naphthyl)-1,2-diaminoethane spectrophotometry”. Nitrosification inhibition rate (%)=(1-the produced amount of NO2^− of the sample/the produced amount of NO2^− of a blank)×100% The selection and formulation of the standard were the same as those of Embodiment 1. Microbial Strains: Nitrosomonas stercoris (NBRC 110753) was purchased from Biological Resource Center, NITE, Japan. The microbial culture medium and microbial culture were the same as those of Embodiment 1. Nitrification activity inhibition experiment: The bacterial solution of Nitrosomonas stercoris cultured for 7 days was collected, centrifuged at 5000 g for 20 min, and resuspended in a fresh and sterile HEPES medium until the OD600 reached about 1.0, with a concentration multiple of 40-50 times. Taken was a 1.5 mL sterile centrifuge tube, and it was sequentially added with 195 μL of sterile water, 5 μL of different concentrations of solutions of syringic acid and 1,9-decanediol in DMSO, 100 μL of the fresh and sterile HEPES medium, and 200 μL of a resuspended bacterial solution, and then cultured in a water bath at 25° C. under a dark condition for 2 hours. Then the mixed system was added with 20 μL of 0.1M Allylthiourea to terminate the nitrosification. […]

[3] = test system: Nitrosomonas; test: Nitrosification inhibition activity of syringic acid alone and as promoter of 1,9-decanediol (summary statement)
Text: The root exudates of 19 rice varieties are collected, concentrated, and determined for their nitrosification inhibition activities by using Nitrosomonas europaea. The varieties with significant effects are further screened out from them, to select a variety of which the root exudate has a significant inhibitory effect and a variety of which the root exudate has an effect opposite to the former, and then they are subjected to GC/MS identification for components thereof. By component comparison of the two varieties, syringic acid (4-Hydroxy 3,5-dimethoxybenzoic acid, with the molecular weight of 198.18) is identified in the root exudate of the rice variety Wuyunjing 7 having a significant inhibitory effect.

Compound	inhibition rate for the nitrosification process of Nitrosomonas europaea ([1]; 1,9-decanediol added alone)	nitrification inhibition rate ([1]; 1,9-decanediol plus syringic acid at 10 μ·mL^−1)	nitrification inhibition rate ([1]; 1,9-decanediol plus syringic acid at 100 μ·mL^−1)	nitrification inhibition rate ([1]; 1,9-decanediol plus syringic acid at 500 μ·mL^−1)	inhibition rate (nitrification inhibition effect on Nitrosomonas stercoris) ([2]; 1,9-decanediol plus 10 μg·mL^−1 of syringic acid)	inhibition rate (nitrification inhibition effect on Nitrosomonas stercoris) ([2]; 1,9-decanediol plus 100 μg·mL^−1 of syringic acid)	inhibition rate (nitrification inhibition effect on Nitrosomonas stercoris) ([2]; 1,9-decanediol plus 500 μg·mL^−1 of syringic acid)	inhibition rate (nitrification inhibition effect on Nitrosomonas stercoris) ([2]; 1,9-decanediol without syringic acid)	inhibitory activity to the Nitrosomonas ([3]; syringic acid alone)	effect concentration for promoting the inhibition of 1,9-decanediol to the nitrosification activity of the Nitrosomonas ([3]; syringic acid combined with 1,9-decanediol)
CC(O)CCCCCCCCO (stereo not shown) [1,9-decanediol]	41.2%	51.7%	61.1%	69.2%	60.5%	70.2%	89.9%	51.5%		
COc1cc(C(=O)O)cc(OC)c1O [syringic acid, 4-Hydroxy 3,5-dimethoxybenzoic acid]									no significant inhibitory activity	10 to 500 µg/mL
